{"source": "patent US20170275275A1", "about": "“BENZENESULFONAMIDES USEFUL AS SODIUM CHANNEL INHIBITORS” (PFIZER INC., priority 2014, published 2017)", "key": {"[1]": {"molecular_target": "T1, Nav1.7 (or SCN9A) channel (Homo sapiens, UniProt Q15858)", "T1 construct": "expressed in transfected cells", "T1 sequence (Q15858 whole entry)": "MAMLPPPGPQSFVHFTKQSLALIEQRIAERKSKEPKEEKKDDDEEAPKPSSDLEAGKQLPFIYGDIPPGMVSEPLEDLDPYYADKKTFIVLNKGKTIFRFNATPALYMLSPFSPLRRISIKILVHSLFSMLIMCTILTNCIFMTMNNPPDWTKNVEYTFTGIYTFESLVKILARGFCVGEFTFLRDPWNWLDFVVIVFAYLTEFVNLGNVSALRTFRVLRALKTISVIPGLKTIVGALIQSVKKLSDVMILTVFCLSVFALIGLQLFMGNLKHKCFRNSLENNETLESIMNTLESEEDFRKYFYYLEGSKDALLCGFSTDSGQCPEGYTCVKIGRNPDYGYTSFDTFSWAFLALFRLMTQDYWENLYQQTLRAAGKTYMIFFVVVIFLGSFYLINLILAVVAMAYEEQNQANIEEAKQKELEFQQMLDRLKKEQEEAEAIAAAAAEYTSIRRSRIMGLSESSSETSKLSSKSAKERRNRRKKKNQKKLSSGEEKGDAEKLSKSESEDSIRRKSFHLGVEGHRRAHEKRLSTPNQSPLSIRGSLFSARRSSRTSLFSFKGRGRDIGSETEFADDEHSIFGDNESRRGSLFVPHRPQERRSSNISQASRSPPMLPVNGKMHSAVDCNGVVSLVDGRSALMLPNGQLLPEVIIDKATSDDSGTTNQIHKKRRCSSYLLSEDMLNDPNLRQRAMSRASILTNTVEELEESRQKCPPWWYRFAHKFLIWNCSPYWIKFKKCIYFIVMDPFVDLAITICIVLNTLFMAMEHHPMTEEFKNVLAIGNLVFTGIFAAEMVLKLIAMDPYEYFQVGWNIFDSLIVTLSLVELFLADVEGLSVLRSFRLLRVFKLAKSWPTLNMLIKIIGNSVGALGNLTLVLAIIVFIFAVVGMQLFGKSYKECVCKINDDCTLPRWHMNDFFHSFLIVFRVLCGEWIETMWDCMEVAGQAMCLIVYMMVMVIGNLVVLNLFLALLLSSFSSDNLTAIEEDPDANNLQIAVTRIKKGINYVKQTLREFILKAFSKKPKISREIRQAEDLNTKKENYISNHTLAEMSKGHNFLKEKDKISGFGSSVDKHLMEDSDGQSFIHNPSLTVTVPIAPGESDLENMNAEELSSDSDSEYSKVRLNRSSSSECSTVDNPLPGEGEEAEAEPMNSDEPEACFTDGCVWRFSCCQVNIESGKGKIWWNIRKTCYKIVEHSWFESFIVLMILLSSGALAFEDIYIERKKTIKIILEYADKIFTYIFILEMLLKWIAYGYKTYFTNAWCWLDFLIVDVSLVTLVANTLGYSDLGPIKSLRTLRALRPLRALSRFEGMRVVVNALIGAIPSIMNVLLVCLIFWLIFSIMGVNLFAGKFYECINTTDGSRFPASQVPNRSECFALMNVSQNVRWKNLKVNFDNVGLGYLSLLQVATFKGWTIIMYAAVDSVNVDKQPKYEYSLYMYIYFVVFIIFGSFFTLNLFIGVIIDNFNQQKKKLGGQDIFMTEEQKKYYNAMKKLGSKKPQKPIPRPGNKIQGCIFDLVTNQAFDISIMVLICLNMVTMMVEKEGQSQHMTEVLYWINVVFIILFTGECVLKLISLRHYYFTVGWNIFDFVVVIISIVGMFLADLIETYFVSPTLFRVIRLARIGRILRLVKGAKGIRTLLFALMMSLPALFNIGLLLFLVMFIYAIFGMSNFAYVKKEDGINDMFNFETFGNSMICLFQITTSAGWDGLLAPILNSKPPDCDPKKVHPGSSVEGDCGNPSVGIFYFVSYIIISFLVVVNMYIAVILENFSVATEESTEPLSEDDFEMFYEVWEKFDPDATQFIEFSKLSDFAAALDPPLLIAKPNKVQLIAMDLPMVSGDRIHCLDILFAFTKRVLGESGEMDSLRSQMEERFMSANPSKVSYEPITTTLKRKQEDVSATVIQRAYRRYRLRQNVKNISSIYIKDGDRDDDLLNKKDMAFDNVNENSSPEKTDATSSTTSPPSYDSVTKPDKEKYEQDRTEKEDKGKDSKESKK", "experiment": "Nav1.7 (hSCN9A) channel block, PatchXpress (PX) whole-cell electrophysiology in stably transfected HEK cells", "assay_type": "cell-based", "details": "estimated IC50 from single point electrophysiology data; PatchXpress platform; HEK cells expressing hSCN9A; clamped at V1/2 of inactivation; read-out: Nav1.7 EIC50", "experimental": "The ability of the compounds of formula (I) to block the Nav1.7 (or SCN9A) channel was measured using the assay described below.\nHuman Embryonic Kidney (HEK) cells were transfected with an hSCN9A construct using lipofectamine reagent (Invitrogen), using standard techniques. Cells stably expressing the hSCN9A constructs were identified by their resistance to G-418 (400 μg/ml). Clones were screened for expression using the whole-cell voltage-clamp technique.\nHEK cells stably transfected with hSCN9A were maintained in DMEM medium supplemented with 10% heat-inactivated fetal bovine serum and 400 μg/ml G-418 in an incubator at 37° C. with a humidified atmosphere of 10% CO2. For HTS, cells were harvested from flasks by trypsinization and replated in an appropriate multi-well plate (typically 96 or 384 wells/plate) such that confluence would be achieved within 24 hours of plating. Cells were typically used for electrophysiological experiments within 24 to 72 hours after plating.\nFor conventional whole-cell voltage clamp experiments cells were removed from the culture flask by brief trypsinization and re-plated at low density onto glass cover slips. Cover slips containing HEK cells expressing hSCN9A were placed in a bath on the stage of an inverted microscope and perfused (approximately 1 ml/minutes) with extracellular solution of the following composition: 138 mM NaCl, 2 mM CaCl2, 5.4 mM KCl, 1 mM MgCl2, 10 mM glucose, and 10 mM HEPES, pH 7.4, with NaOH. […] The osmolarity of the extracellular and intracellular solutions was 300 mOsm/kg and 295 mOsm/kg, respectively. All recordings were made at room temperature (22-24° C.) using AXOPATCH 200B amplifiers and PCLAMP software (Axon Instruments, Burlingame, Calif.). hSCN9A currents in HEK cells were measured using the whole-cell configuration of the patch-clamp technique (Hamill et al., 1981). Uncompensated series resistance was typically 2 to 5 mega ohms and >85% series resistance compensation was routinely achieved. […] Current records were acquired at 20 to 50 KHz and filtered at 5 to 10 KHz.\nHEK cells stably transfected with hSCN9A were viewed under Hoffman contrast optics and placed in front of an array of flow pipes emitting either control or compound-containing extracellular solutions.\nThe voltage-dependence of inactivation was determined by applying a series of depolarizing prepulses (8 sec long in 10 mV increments) from a negative holding potential. The voltage was then immediately stepped to 0 mV to assess the magnitude of the sodium current. Currents elicited at 0 mV were plotted as a function of prepulse potential to allow estimation of the voltage at which 50% of the channels were inactivated (midpoint of inactivation or V1/2). Compounds were tested for their ability to inhibit hSCN9A sodium channels by activating the channel with a 20 msec voltage step […] to 0 mV following an 8 second conditioning prepulse to the empirically determined V1/2. Compound effect (% inhibition) was determined by difference in current amplitude before and after application of test compounds. For ease of comparison, “estimated IC-50” (EIC50) values were calculated from single point electrophysiology data by the following equation, (tested concentration, nM)×(100-% inhibition/% inhibition). Inhibition values <20% and >80% were excluded from the calculation.\nElectrophysiological assays were conducted with PatchXpress 7000 hardware and associated software (Molecular Devices Corp). All assay buffers and solutions were identical to those used in conventional whole-cell voltage clamp experiments described above. hSCN9A cells were grown as above to 50%-80% confluency and harvested by trypsinization. Trypsinized cells were washed and resuspended in extracellular buffer at a concentration of 1×10^6 cells/ml. The onboard liquid handling facility of the PatchXpress was used for dispensing cells and application of test compounds."}, "[2]": {"experiment": "Aqueous solubility, shake-flask method", "assay_type": "physicochemical", "details": "aqueous buffer, thermodynamic from solid, pH 7.0, shaken 18 hours at room temperature", "experimental": "Aqueous solubility data were generated via a “shake-flask” method where an excess of compound was added to a buffer (typically phosphate buffered saline at pH 7.4) and shaken for a period of 18 hours at room temperature. After this time any excess solid was removed by double centrifugation to obtain a saturated aqueous solution. The amount of compound solubilised was quantified by HPLC-UV or LC-MS against a standard calibration curve.\nThe solubility data generated are set out below. Where a greater than figure is quoted, all available compound was solubilised and saturation was not achieved in the conditions employed."}}, "note": "Where a name gives a salt, the structure may show the parent alone.", "data": [{"compound": "NCc1cc(-c2cc(-c3cccc(C(F)(F)F)c3)ccc2Oc2cc(F)c(S(=O)(=O)Nc3cscn3)cc2Cl)ccn1", "note": "[Example 29, 4-({3-[2-(aminomethyl)pyridin-4-yl]-3′-(trifluoromethyl)biphenyl-4-yl}oxy)-5-chloro-2-fluoro-N-(1,3-thiazol-4-yl)benzenesulfonamide dihydrochloride salt]", "values": [{"measurement": "IC50", "setting": "[1]", "value": 2.9, "unit": "nM"}, {"measurement": "solubility at 18 h", "setting": "[2]", "value": "< 0.5", "unit": "µg/mL"}]}]}
